According to patent publication US8163737B2 (Vertex Pharmaceuticals Incorporated, priority 2006, dated 2012):
pIC50, pKi: −log10 of the molar value.

How the values were obtained:
[1] = molecular target: T1, CGRP receptor (SK-N-MC membrane) (Homo sapiens, UniProt O60894+Q16602); assay: I125-CGRP binding displacement assay on purified SK-N-MC membrane
T1 construct: Purified SK-N-MC membrane was purchased from Perkin Elmer; purchased Perkin Elmer; host or cells: SK-N-MC membrane
Summary of the method: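 Displacement of I125-CGRP binding was measured by filtration and scintillation counting after 2 h room-temperature incubation with compound and SK-N-MC membranes (buffer pH 7.4, MgCl2, BSA, Tween). Percent displacement calculated against total binding and 1 uM cold CGRP nonspecific controls, then curve-fitted.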

endogenous CGRP receptor = endogenous CGRP receptor (Homo sapiens, UniProt O60894+Q16602); assay: CGRP functional antagonism using SK-N-MC-BLA (4C10), β-lactamase transcriptional reporter assay; assay type: cell-based; conditions: SK-N-MC (4C10) cells, inhibition of β-lactamase expression in the presence of 200 pM CGRP
endogenous CGRP receptor, sequence (Q16602 23-461): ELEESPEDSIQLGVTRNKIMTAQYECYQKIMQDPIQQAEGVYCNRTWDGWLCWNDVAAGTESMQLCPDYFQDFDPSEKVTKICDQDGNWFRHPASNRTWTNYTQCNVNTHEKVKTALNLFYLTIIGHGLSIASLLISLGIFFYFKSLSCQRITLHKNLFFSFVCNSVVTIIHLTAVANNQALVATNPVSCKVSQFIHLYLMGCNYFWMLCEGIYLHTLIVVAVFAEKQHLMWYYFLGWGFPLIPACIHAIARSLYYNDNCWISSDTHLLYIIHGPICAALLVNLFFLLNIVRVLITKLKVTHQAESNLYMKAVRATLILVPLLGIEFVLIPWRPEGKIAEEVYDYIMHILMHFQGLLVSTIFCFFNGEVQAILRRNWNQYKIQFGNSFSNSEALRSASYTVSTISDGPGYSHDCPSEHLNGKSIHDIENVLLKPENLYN
endogenous CGRP receptor, sequence (O60894 27-148): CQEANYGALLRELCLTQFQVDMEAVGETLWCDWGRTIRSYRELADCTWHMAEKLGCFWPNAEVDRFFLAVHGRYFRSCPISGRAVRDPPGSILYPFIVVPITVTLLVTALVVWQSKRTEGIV

T1 sequence (Q16602 23-461): as the sequence (Q16602 23-461) above
T1 sequence (O60894 27-148): as the sequence (O60894 27-148) above

SMILES | pKi [1] | pIC50 (endogenous CGRP receptor)
CC(C)(C)CCN1C(=O)[C@H](CC(=O)N2CCC(N3CCc4ccccc4NC3=O)CC2)SC1c1ccccc1N1CCN(C(=O)OC(C)(C)C)CC1=O (stereo partly drawn) [Compound 510] | > 6.00 | > 6.00
Cc1cc(C2SC(CC(=O)N3CCC(N4CCc5ccccc5NC4=O)CC3)C(=O)N2CC2CCCCC2)cc2cn[nH]c12 (stereo not drawn) [Compound 20] | > 6.00 | > 6.00
CN1CCN(c2ccccc2[C@H]2S[C@](C)(CC(=O)N3CCC(n4c(=O)[nH]c5ncccc54)CC3)C(=O)N2CCC(C)(C)C)CC1 [Compound 380] | > 6.00 | > 6.00
CN1CCN(c2ccccc2C2N(CCC(C)(C)C)C(=O)C(CC(=O)N3CCC(N4Cc5ccccc5NC4=O)CC3)[S+]2[O-])CC1 (stereo not drawn) [Compound 307] | > 6.00 | > 6.00
CN(c1ccccc1C1SC(CC(=O)N2CCC(n3c(=O)[nH]c4ncccc43)CC2)C(=O)N1CCC(C)(C)C)[C@@H]1CCN(Cc2ccccc2)C1 (stereo partly drawn) [Compound 402] | > 6.00 | > 6.00
COc1ccc(C(=O)C2CCN(C(=O)C[C@@H]3SC(c4cccc(F)c4N4CCN(C(C)(C)C)CC4)N(CCC(C)(C)C)C3=O)CC2)cc1 (stereo partly drawn) [Compound 461] | > 6.00 | > 6.00
N#Cc1ccccc1C1SC(CC(=O)N2CCC(N3CCc4ccccc4NC3=O)CC2)C(=O)N1CC1CCCCC1 (stereo not drawn) [Compound 175] | > 6.00 | > 6.00
O=C(CC1SC(c2c(F)cccc2F)N(CC2CCCCC2)C1=O)N1CCC(N2CCc3ccccc3NC2=O)CC1 (stereo not drawn) [Compound 16] | > 6.00 | > 6.00
CC(C)(C)N1CCN(c2c(F)cccc2[C@@H]2S[C@@H](CC(=O)N3CCC(N4CCc5ccccc5NC4=O)CC3)C(=O)N2CC2CCOCC2)CC1 [Compound 524] | > 6.00 | > 6.00
CCCN1C(=O)[C@H](CC(=O)N2CCC(n3c(=O)[nH]c4ncccc43)CC2)SC1c1cccc(F)c1N1CCN(C(C)(C)C)CC1 (stereo partly drawn) [Compound 538] | > 6.00 | > 6.00
CC(C)(C)CCN1C(=O)C(CC(=O)N2CCC(N3CCc4ccccc4NC3=O)CC2)SC1c1ccccc1N1CCOCC1 (stereo not drawn) [Compound 70] | > 6.00 | > 6.00
CC(C)(C)CCN1C(=O)C(CC(=O)N2CCC(N3Cc4ccccc4NC3=O)CC2)SC1c1ccccc1 (stereo not drawn) [Compound 93] | > 6.00 | > 6.00
CC(C)(C)CCN1C(=O)[C@H](CC(=O)N2CCC(N3CCc4ccccc4NC3=O)CC2)SC1c1cnc(C2CCN(C(=O)OC(C)(C)C)CC2)s1 (stereo partly drawn) [Compound 492, tert-Butyl 4-(5-((5S)-3-(3,3-dimethylbutyl)-4-oxo-5-(2-oxo-2-(4-(2-oxo-4,5-dihydro-1H-benzo[d][1,3]diazepin-3(2H)-yl)piperidin-1-yl)ethyl)thiazolidin-2-yl)thiazol-2-yl)piperidine-1-carboxylate] | > 6.00 | 5.30 to 6.00
CNC1CCN(c2c(F)cccc2[C@@H]2S[C@@H](CC(=O)N3CCC(n4c(=O)[nH]c5ncccc54)CC3)C(=O)N2CCC(C)(C)C)C1 (stereo partly drawn) [Compound 459] | > 6.00 | > 6.00
CC(C)CCN1C(=O)C(CC(=O)N2CCC(n3cc(-c4ccccc4)[nH]c3=O)CC2)SC1c1ccccc1 (stereo not drawn) [Compound 110] | < 5.30 | < 5.30
CC(C)(C)CCN1C(=O)C(CC(=O)N2CCC(N3Cc4ccccc4NC3=O)CC2)SC1c1ccccc1-n1cccn1 (stereo not drawn) [Compound 115] | > 6.00 | > 6.00
CC(C)CCN1C(=O)C(CC(=O)N2CCC(N3Cc4ccccc4NC3=O)CC2)SC1c1ccc(F)c(F)c1 (stereo not drawn) [Compound 202] | > 6.00 | > 6.00
CC(C)CCN1C(=O)C(CC(=O)N2CCC(N3Cc4ccccc4NC3=O)CC2)[S+]([O-])C1c1ccccc1 (stereo not drawn) [Compound 118] | > 6.00 | 5.30 to 6.00
CC(C)(C)CCN1C(=O)[C@H](CC(=O)N2CCC(O)(c3ccc(Br)cc3)CC2)SC1c1cccc(F)c1N1CCN(C(C)(C)C)CC1 (stereo partly drawn) [Compound 457] | > 6.00 | > 6.00
COc1cccc(C2SC(CC(=O)N3CCC(n4cc(-c5ccccc5)[nH]c4=O)CC3)C(=O)N2CCC(C)C)c1 (stereo not drawn) [Compound 61] | < 5.30 | 5.30 to 6.00
CC(C)(C)CCN1C(=O)C(CC(=O)N2CCC(N3CCc4ccccc4NC3=O)CC2)SC1c1ccccc1-n1ccnc1 (stereo not drawn) [Compound 28] | > 6.00 | > 6.00
CC(C)(C)N1CCN(c2c(F)cccc2[C@H]2S[C@@H](CC(=O)N3CCC(N4CCc5ccccc5NC4=O)CC3)C(=O)N2CCc2ccc(F)cc2)CC1 [Compound 503] | > 6.00 | > 6.00
CC(C)(C)CCN1C(=O)[C@H](CC(=O)N2CCC(N3Cc4ccccc4NC3=O)CC2)S[C@H]1c1cccc(F)c1N1CCC(O)C1 (stereo partly drawn) [Compound 469] | > 6.00 | > 6.00
CC(C)(C)N1CCN(c2c(F)cccc2[C@H]2S[C@@H](CC(=O)N3CCC(N4CCc5ccccc5NC4=O)CC3)C(=O)N2CCc2ccccc2)CC1 [Compound 507] | > 6.00 | > 6.00

SMILES | pKi [1] | pIC50 (endogenous CGRP receptor)
CC(C)CCN1C(=O)C(CC(=O)N2CCC(n3c(=O)[nH]c4ccccc43)CC2)S[C@H]1c1ccccc1N1CCC(O)CC1 (stereo partly drawn) [Compound 290] | > 6.00 | > 6.00
Cc1cccc(C2SC(CC(=O)N3CCC(N4Cc5ccccc5NC4=O)CC3)C(=O)N2CCC(C)C)c1 (stereo not drawn) [Compound 41] | > 6.00 | > 6.00
CC(C)(C)CCN1C(=O)C(CC(=O)N2CCC(N3CCc4ccccc4NC3=O)CC2)SC12CCSCC2 (stereo not drawn) [Compound 15] | > 6.00 | > 6.00
CN(C)c1ccccc1C1SC(CC(=O)N2CCC(N3CCc4ccccc4NC3=O)CC2)C(=O)N1CCC(C)(C)C (stereo not drawn) [Compound 263] | > 6.00 | > 6.00
CC(C)CCN1C(=O)C(CC(=O)N2CCC(N3CCc4ccccc4NC3=O)CC2)SC1c1ccc(F)cc1F (stereo not drawn) [Compound 44] | > 6.00 | > 6.00
CC(C)CCN1C(=O)[C@H](CC(=O)N2CCC(N3CCc4ccccc4NC3=O)CC2)SC1c1cccc(F)c1N1CCN(C(C)(C)C)CC1 (stereo partly drawn) [Compound 545] | > 6.00 | > 6.00
CC(C)(C)CCN1C(=O)C(CC(=O)N2CCC(N3Cc4ccccc4NC3=O)CC2)SC1c1ccccc1N1CCC(O)CC1 (stereo not drawn) [Compound 49] | > 6.00 | > 6.00
CC(C)(C)CCN1C(=O)C(CC(=O)N2CCC(n3c(=O)[nH]c4ncccc43)CC2)SC1c1ccccc1N1CCC(O)CC1 (stereo not drawn) [Compound 415] | > 6.00 | 5.30 to 6.00
CN1CCN(c2c(Cl)cccc2C2SC(CC(=O)N3CCC(n4c(=O)[nH]c5ncccc54)CC3)C(=O)N2CCC(C)(C)C)CC1 (stereo not drawn) [Compound 357] | > 6.00 | > 6.00
CN(c1ccccc1C1SC(CC(=O)N2CCC(N3CCc4ccccc4NC3=O)CC2)C(=O)N1CCC(C)(C)C)[C@H]1CCN(Cc2ccccc2)C1 (stereo partly drawn) [Compound 409] | > 6.00 | < 5.30
CC(C)CCN1C(=O)C(CC(=O)N2CCC(N3Cc4ccccc4NC3=O)CC2)SC1c1cccc(Cl)c1 (stereo not drawn) [Compound 33] | > 6.00 | > 6.00
CC(C)(C)N1CCN(c2c(F)cccc2C2S[C@@H](CC(=O)N3CCC(n4c(=O)[nH]c5ncccc54)CC3)C(=O)N2CCc2ccc(F)cc2)CC1 (stereo partly drawn) [Compound 505] | > 6.00 | > 6.00
O=C(CC1SC(c2cccc(F)c2F)N(CC2CCCCC2)C1=O)N1CCC(N2CCc3ccccc3NC2=O)CC1 (stereo not drawn) [Compound 279] | > 6.00 | > 6.00
CC(C)(C)N1CCN(c2c(F)cccc2[C@@H]2S[C@@H](CC(=O)N3CCC(N4CCc5ccccc5NC4=O)CC3)C(=O)N2CCc2ccc(F)cc2)CC1 [Compound 504] | > 6.00 | > 6.00
CCCCN1C(=O)[C@H](CC(=O)N2CCC(N3CCc4ccccc4NC3=O)CC2)SC1c1cccc(F)c1N1CCN(C(C)(C)C)CC1 (stereo partly drawn) [Compound 522] | > 6.00 | > 6.00
CC(C)(C)CCN1C(=O)C(CC(=O)N2CCC(N3CCc4ccccc4NC3=O)CC2)SC1c1ccccc1 (stereo not drawn) [Compound 8] | > 6.00 | > 6.00
CC(C)(C)N1CCN(c2c(F)cccc2C2S[C@@H](CC(=O)N3CCC(n4c(=O)[nH]c5ncccc54)CC3)C(=O)N2CC2CCCCC2)CC1 (stereo partly drawn) [Compound 516] | > 6.00 | > 6.00
O=C(CC1SC(c2ccccc2)N(CC2CC2)C1=O)N1CCC(N2Cc3ccccc3NC2=O)CC1 (stereo not drawn) [Compound 271] | > 6.00 | > 6.00
O=C(CC1SC(c2ccccc2)N(C2CC2)C1=O)N1CCC(N2Cc3ccccc3NC2=O)CC1 (stereo not drawn) [Compound 230] | 5.30 to 6.00 | < 5.30
O=C(CC1SC(c2ccccc2)N(CCc2ccncc2)C1=O)N1CCC(n2cc(-c3ccccc3)[nH]c2=O)CC1 (stereo not drawn) [Compound 53] | < 5.30 | < 5.30
CN1CCN(c2ccc(F)cc2[C@H]2S[C@@H](CC(=O)N3CCC(n4c(=O)[nH]c5ncccc54)CC3)C(=O)N2CCC(C)(C)C)CC1 [Compound 397] | < 5.30 | < 5.30
CC(C)CCN1C(=O)[C@H](CC(=O)N2CCC(N3Cc4ccccc4NC3=O)CC2)SC1c1ccccn1 (stereo partly drawn) [Compound 176] | > 6.00 | 5.30 to 6.00
CC(C)(C)CCN1C(=O)C(CC(=O)N2CCC(N3CCc4ccccc4NC3=O)CC2)SC1c1cccc(F)c1N1CCN(C2CC2)CC1 (stereo not drawn) [Compound 389] | > 6.00 | > 6.00
CN1CCN(c2c(F)cccc2C2SC(CC(=O)N3CCC(N4CCc5ccccc5NC4=O)CC3)C(=O)N2CCC(C)(C)C)CC1 (stereo not drawn) [Compound 324] | > 6.00 | > 6.00
